Test results taken from ChEMBL document CHEMBL1201862, “PubChem BioAssay data set” (2004).
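These data come from cells grown in 96-well plates and exposed to compound for 48 hours at five concentrations. Abbreviation: GI50, concentration required for 50% inhibition of growth.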 Active and inactive are the calls of the source. Cut-off read from the data, not from the text of the source: active = GI50 up to about 1.1 µM and inactive = higher.

Columns and labels:
Test in all cases: DTP human tumour cell line panel, 48 h
A549 = tested on: A549
BT-549 = tested on: BT-549
DU-145 = tested on: DU-145
EKVX = tested on: EKVX
HCT-116 = tested on: HCT-116
HOP-62 = tested on: HOP-62
IGROV-1 = tested on: IGROV-1
MCF7 = tested on: MCF7
Malme-3M = tested on: Malme-3M
NCI-H226 = tested on: NCI-H226
NCI-H23 = tested on: NCI-H23
OVCAR-8 = tested on: OVCAR-8
PC-3 = tested on: PC-3
SK-OV-3 = tested on: SK-OV-3
SN12C = tested on: SN12C
T47D = tested on: T47D
UACC-257 = tested on: UACC-257
UACC-62 = tested on: UACC-62
SK-MEL-28 = tested on: SK-MEL-28
RXF 393 = tested on: RXF 393

Measured: GI50

O=C(NNS(=O)(=O)c1ccccc1)c1csc(NC(=S)NC2CCCCC2)n1
inactive: A549 35.2 µM | BT-549 25.4 µM | DU-145 27.2 µM | EKVX 35.6 µM | HCT-116 18.1 µM | HOP-62 58.3 µM | IGROV-1 26.5 µM | MCF7 41 µM | Malme-3M 35.4 µM | NCI-H226 67.5 µM | NCI-H23 48 µM | OVCAR-8 33.5 µM | PC-3 34.2 µM | SK-OV-3 42.2 µM | SN12C 20.8 µM | T47D 18.7 µM | UACC-257 22.8 µM | UACC-62 23.7 µM

O/N=C1\C/C(=N\O)c2c(Br)sc(Br)c21
inactive: A549 26.2 µM | BT-549 31.6 µM | DU-145 39.1 µM | EKVX 16.9 µM | HCT-116 37.4 µM | HOP-62 32.1 µM | IGROV-1 30.4 µM | MCF7 38.3 µM | Malme-3M > 100 µM | NCI-H226 51.8 µM | NCI-H23 20.4 µM | OVCAR-8 19.2 µM | SK-MEL-28 24.7 µM | SK-OV-3 91.8 µM | SN12C > 100 µM | T47D 31.3 µM | UACC-257 > 100 µM | UACC-62 91.2 µM

Cc1cc2[nH]c3c(C#N)c(-c4ccccc4)c(/C=N/c4cccc(C(F)(F)F)c4)c(=O)n3c2cc1C
inactive: A549 > 100 µM | BT-549 91.6 µM | EKVX > 100 µM | HCT-116 40.8 µM | HOP-62 22.6 µM | MCF7 79.8 µM | Malme-3M > 100 µM | NCI-H226 > 100 µM | NCI-H23 > 100 µM | OVCAR-8 > 100 µM | PC-3 > 100 µM | RXF 393 37 µM | SK-MEL-28 > 100 µM | SK-OV-3 99.5 µM | SN12C 89.9 µM | T47D 45 µM | UACC-257 > 100 µM

CCOP(=O)(CN1CCNCCNCC1)OCC
inactive: A549 > 100 µM | BT-549 > 100 µM | DU-145 > 100 µM | EKVX > 100 µM | HCT-116 > 100 µM | HOP-62 > 100 µM | IGROV-1 > 100 µM | MCF7 > 100 µM | NCI-H226 > 100 µM | OVCAR-8 > 100 µM | PC-3 > 100 µM | SK-MEL-28 > 100 µM | SK-OV-3 > 100 µM | SN12C > 100 µM | T47D > 100 µM | UACC-257 > 100 µM | UACC-62 > 100 µM

Nc1nc(N)c2ncn(Cc3ccccc3CCl)c2n1
inactive: A549 > 100 µM | BT-549 > 100 µM | DU-145 > 100 µM | EKVX > 100 µM | HCT-116 > 100 µM | HOP-62 > 100 µM | IGROV-1 > 100 µM | MCF7 > 100 µM | Malme-3M > 100 µM | NCI-H226 > 100 µM | NCI-H23 > 100 µM | OVCAR-8 > 100 µM | PC-3 > 100 µM | SK-MEL-28 > 100 µM | SK-OV-3 > 100 µM | SN12C > 100 µM | T47D > 100 µM | UACC-257 > 100 µM | UACC-62 > 100 µM

CC12ON=C(c3ccccc3)N1C=CN1C(c3ccccc3)=NOC12 (centres undefined)
inactive: A549 > 100 µM | BT-549 > 100 µM | DU-145 > 100 µM | EKVX > 100 µM | HCT-116 98.6 µM | HOP-62 > 100 µM | IGROV-1 > 100 µM | MCF7 > 100 µM | Malme-3M > 100 µM | NCI-H226 > 100 µM | NCI-H23 > 100 µM | OVCAR-8 > 100 µM | PC-3 > 100 µM | RXF 393 64.9 µM | SK-OV-3 > 100 µM | UACC-257 > 100 µM | UACC-62 > 100 µM

O=CC1C[C@@H](N2C(=O)O[C@@H](c3ccccc3)[C@H]2c2ccccc2)[C@@H]1COCc1ccccc1 (some centres undefined)
inactive: A549 29.9 µM | BT-549 20.3 µM | DU-145 17.7 µM | EKVX 20 µM | HCT-116 16.7 µM | HOP-62 18 µM | IGROV-1 18.2 µM | MCF7 17.8 µM | Malme-3M 17 µM | NCI-H226 20.2 µM | NCI-H23 17.6 µM | OVCAR-8 21.2 µM | PC-3 19.5 µM | RXF 393 18.7 µM | SK-MEL-28 20 µM | SN12C 17 µM | UACC-257 17.9 µM | UACC-62 16.8 µM
